# Reference: paper PMC6151726, “Design and Antiproliferative Evaluation of Novel Sulfanilamide Derivatives as Potential Tubulin Polymerization Inhibitors” (Molecules : A Journal of Synthetic Chemistry and Natural …, 2017)
# Where two headings read alike, the source gives them in different places.
# What was measured:
# [1] = tested on: MCF-7 (human breast cancer cell line); test: MTT antiproliferative assay, MCF-7; type: cell-based; conditions: MCF7, exposure for 48 h, means ± SDs of three independent experiments
# Description: (§1) All synthesized sulfonamide-1,2,3-triazole hybrids were evaluated for their anticancer activity against three cancer cell lines: MGC-803 (human gastric cancer cell line), MCF-7 (human breast cancer cell line), and PC-3 (human prostate cancer cell line) using a MTT (4,5-dimethyl-2-thiazolyl)-2,5-diphenyl-2-H-tetrazolium bromide) assay. The well-known tubulin polymerization inhibitor CA-4P was used as a control. In [24], 5-fluorouracil (5-Fu) was selected as the control in the antiproliferative evaluation assay of 1,2,3-triazole derivatives. Therefore, 5-Fu was also used as the reference drug in this MTT assay.
# (§2) MGC-803 cells (human gastric cancer), MCF-7 (human breast cancer), PC-3 (human prostate cancer) and GES-1 (human gastric epithelial cell) were cultured in RPMI 1640 medium with 10% FBS and 100 U/mL penicillin and 0.1 mg/mL streptomycin in the 37 °C in an atmosphere containing 5% CO2. All cell lines were purchased from the China Center for Type Culture Collection (CCTCC, Shanghai, China). For pharmacological investigations, 10 mM stock solutions of the tested compounds were prepared with dimethyl sulfoxide (DMSO). […] The MTT assay was prepared according to the previous method.
# [2] = tested on: PC-3 (human prostate cancer cell line); test: MTT antiproliferative assay, PC-3; type: cell-based; conditions: exposure for 48 h, means ± SDs of three independent experiments
# Description: as §1, §2
# [3] = tested on: MGC-803 (human gastric cancer cell line); test: MTT antiproliferative assay, MGC-803; type: cell-based; conditions: exposure for 48 h, means ± SDs of three independent experiments
# Description: as §1, §2
# A2780AD cell line = tested on: A2780AD cell line; parameters: method as in PMID 28640209; conditions: read-out: IC50 antiproliferative activity against A2780AD cell line; cited from earlier work
# [4] = tested on: MGC-803, MCF-7 and PC-3 cells; test: MTT antiproliferative assay, three cancer cell lines together; type: cell-based; conditions: Homo sapiens; range over MGC-803, MCF-7 and PC-3; read-out: IC50 values ranging over three cell lines
# Description: as §1, §2
# tubulin [5] = test: In vitro tubulin polymerization inhibition assay; type: biochemical; conditions: 5.6 mg/mL tubulin in PEM buffer, read-out: inhibitory concentration that reduced the polymerized tubulin by 50% (IC50)
# Description: The inhibitory concentrations that reduced the polymerized tubulin by 50% of CA-4P was 2.40 μM [25]. To investigate whether the synthesized 1,2,3-triazole-sulfonamide hybrids target the tubulin-microtubule system, the in vitro tubulin polymerization inhibition activity of compound 11f was evaluated because of its best antiproliferative activity results among all the tested compounds in the initial cytotoxicity screening. When tubulin was incubated with the tested 1,2,3-triazole-sulfonamide 11f at the indicated concentrations, an increased fluorescence intensity was obvious.
# Tubulin polymerization in vitro was assyed with 100 μL samples and monitored by absorbance at 350 nm (Filter A00019x) in 96-well plates with an Appliskan plate reader (Thermo Fisher Scientific, Waltham, MA, USA). An amount of 5.6 mg/mL tubulin was resuspended in PEM buffer (80 mM PIPES (pH 6.9), 1 mM EGTA, 0.5 mM MgCl2, […], 10.2% (v/v) glycerol) and then was preincubated with compound 11f or vehicle DMSO on ice. Data were exported using the Thermo Scientific SkanIt software of the Appliskan (version 2.3) and Excel software was used to generate plots. For convenience, data were normalized to the minimum absorbance value of the initial stable plateau. This tubulin polymerization inhibition assay was measured according to the method originally.
# [6] = MTT assay on normal cells, GES-1; type: cell-based; conditions: GES-1 cells (normal gastric epithelial cell line), normal human gastric epithelial cell line, read-out: inhibitory effect / cytotoxicity against GES-1
# Description: Compound 11f was further examined for possible inhibitory effects against GES-1 (normal human gastric epithelial cell line).
# as §2
# CDK1 = tested on: CDK1; parameters: method as in PMID 28005359; conditions: cited from earlier work
# CDK2 = tested on: CDK2; parameters: method as in PMID 28005359; conditions: cited from earlier work
# [7] = tested on: HCT116 human colon carcinoma; parameters: method as in PMID 10508428; conditions: cell proliferation assay; cited from earlier work
# 4T1 mammary tumor cells = conditions: 45 mg/kg; cited from earlier work
# PC3 cells = tested on: PC3 cells; parameters: method as in PMID 27423028; conditions: read-out: IC50 against PC3 cells; cited from earlier work
# murine leukemia = tested on: murine leukemia; parameters: method as in PMID 26501246; conditions: read-out: IC50 against the proliferation of murine leukemia; cited from earlier work
# tubulin [8] = tested on: tubulin; parameters: method as in PMID 24923521; conditions: read-out: IC50 inhibition of tubulin assembly; cited from earlier work
Compound,IC50 [1] [µM],"IC50 ([2]; Homo sapiens, 48 h) [µM]",IC50 [3] [µM],melting point [°C],also measured
"O=S(=O)(NCc1cn(Cc2cccc(Oc3ccccc3)c2)nn1)c1ccccc1Cl [11i, 2-Chloro-N-((1-(3-phenoxybenzyl)-1H-1,2,3-triazol-4-yl)methyl) benzenesulfonamide]",77.5 ± 0.7,22.7 ± 0.5,15.3 ± 0.5,97 to 99,
"CC(C)(C)c1ccc(S(=O)(=O)NCc2cn(Cc3cccc(Oc4ccccc4)c3)nn2)cc1 [11g, 4-(Tert-butyl)-N-((1-(3-phenoxybenzyl)-1H-1,2,3-triazol-4-yl)methyl)benzenesulfonamide]",54.9 ± 1.7,7.1 ± 0.5,> 100,137 to 139,
"C#CCNS(=O)(=O)c1cccs1 [9a, N-(Prop-2-yn-1-yl)thiophene-2-sulfonamide]",> 100,> 100,> 100,,
Quinolin-6-yloxyacetamide,,,,,IC50 (A2780AD cell line): 0.262 µM
"C#CCNS(=O)(=O)c1ccc(C)cc1 [9f, 4-Methyl-N-(prop-2-yn-1-yl)benzenesulfonamide]",> 100,> 100,> 100,,
"O=c1ccc2cc(S(=O)(=O)NCc3cn(Cc4cccc(Oc5ccccc5)c4)nn3)ccc2o1 [11d, 2-Oxo-N-((1-(3-phenoxybenzyl)-1H-1,2,3-triazol-4-yl)methyl)-2H-chromene-6-sulfonamide]",36.4 ± 2,34.1 ± 0.3,88.8 ± 0.5,144 to 146,IC50 [4]: 34.1 to 88.8 µM
"Cc1cc(C)c(S(=O)(=O)NCc2cn(Cc3cccc(Oc4ccccc4)c3)nn2)c(C)c1 [11h, 2,4,6-Trimethyl-N-((1-(3-phenoxybenzyl)-1H-1,2,3-triazol-4-yl)methyl)benzenesulfonamide]",24.6 ± 1.6,24.7 ± 3,18.4 ± 0.7,111 to 113,
"Cc1ccc(S(=O)(=O)NCc2cn(Cc3cccc(Oc4ccccc4)c3)nn2)cc1 [11f, 4-Methyl-N-((1-(3-phenoxybenzyl)-1H-1,2,3-triazol-4-yl)methyl)benzenesulfonamide]",15.7 ± 0.2,4.08,13.7 ± 2.9,118 to 121,IC50 [4]: 4.1 to 15.7 µM; IC50 (tubulin [5]): 2.41 µM; IC50 [6]: > 64 µM; IC50 [2]: 4.1 ± 1.4 µM
NS(=O)(=O)c1ccc(Nc2nc(-c3cccc(-c4ccccc4)c3)c3nc[nH]c3n2)cc1 [compound 3],,,,,fold less active toward CDK1 than CDK2 (CDK1; CDK1 vs CDK2): ~ 2000 fold; IC50 (CDK1): 86 µM; IC50 (CDK2): 0.044 µM
"Cc1ccc(S(=O)(=O)NCc2cn(Cc3cccc(C)c3)nn2)cc1 [11k, 4-Methyl-N-((1-(3-methylbenzyl)-1H-1,2,3-triazol-4-yl)methyl)benzenesulfonamide]",> 100,> 100,75.8 ± 0.6,145 to 148,
"O=c1[nH]cc(F)c(=O)[nH]1 [5-Fu, 5-Fluorouracil, reference compound]",21.2 ± 3.6,13.9 ± 1.5,15.6 ± 0.4,,
"NS(=O)(=O)c1ccc(S(=O)(=O)Nc2cccc3c(Cl)c[nH]c23)cc1 [compound 4, N-(3-chloro-7-indolyl)-1,4-benzenedisulfonamide]",,,,,IC50 against HCT116 human colon carcinoma [7]: 0.11 µg/mL
NS(=O)(=O)c1ccc(NC(=O)Nc2cccc([N+](=O)[O-])c2)cc1 [compound 1],,,,,formation of metastases by 4T1 mammary tumor cells (4T1 mammary tumor cells): significantly inhibited the formation of metastases
"C#CCNS(=O)(=O)c1ccc2oc(=O)ccc2c1 [9d, 2-Oxo-N-(prop-2-yn-1-yl)-2H-chromene-6-sulfonamide]",> 100,> 100,> 100,193 to 196,
O=S1(=O)CCCN(S(=O)(=O)c2ccc(-c3cnc(C4CC4)o3)cc2)c2ccccc21 [BA-3P],,,,,IC50 (PC3 cells): 5.88 µM
"O=S(=O)(NCc1cn(Cc2cccc(Oc3ccccc3)c2)nn1)c1cccs1 [11a, N-((1-(3-Phenoxybenzyl)-1H-1,2,3-triazol-4-yl)methyl)thiophene-2-sulfonamide]",78.5 ± 2.2,24.6 ± 0.9,17 ± 1.8,104 to 106,
Nc1nc(Cl)c2ncn(Cc3cn(C[C@H](OCc4ccccc4)[C@@H](O)P(=O)(OCc4ccccc4)OCc4ccccc4)nn3)c2n1 [compound 5],,,,,IC50 (murine leukemia): 21 µM
"Cc1ccc(S(=O)(=O)NCc2cn(Cc3cccc(C#N)c3)nn2)cc1 [11j, N-((1-(3-Cyanobenzyl)-1H-1,2,3-triazol-4-yl)methyl)-4-methylbenzenesulfonamide]",> 100,> 100,41.3 ± 2.3,145 to 147,
"COc1cccc(Cn2cc(CNS(=O)(=O)c3ccc(C)cc3)nn2)c1 [11l, N-((1-(3-Methoxybenzyl)-1H-1,2,3-triazol-4-yl)methyl)-4-methylbenzenesulfonamide]",> 100,> 100,77.2 ± 7.8,112 to 114,
COc1cc2c(cc1O)CC[C@@H]1[C@@H]2CC[C@@]2(C)[C@H]1CC[C@@]2(O)c1cn(-c2ccc(OC(F)(F)F)cc2)nn1 [compound 7],,,,,IC50 (tubulin [8]): 5.9 µM
"O=S(=O)(NCc1cn(Cc2cccc(Oc3ccccc3)c2)nn1)c1ccccc1 [11e, N-((1-(3-Phenoxybenzyl)-1H-1,2,3-triazol-4-yl)methyl)benzenesulfonamide]",39.6 ± 5,6.4 ± 1.2,21.7 ± 0.1,127 to 130,
"O=S(=O)(NCc1cn(Cc2cccc(Oc3ccccc3)c2)nn1)c1ccc(Br)s1 [11c, 5-Bromo-N-((1-(3-phenoxybenzyl)-1H-1,2,3-triazol-4-yl)methyl)thiophene-2-sulfonamide]",34.7 ± 2.6,49.4 ± 1,31 ± 2.2,111 to 112,
"O=S(=O)(NCc1cn(Cc2cccc(Oc3ccccc3)c2)nn1)c1ccc(Cl)s1 [11b, 5-Chloro-N-((1-(3-phenoxybenzyl)-1H-1,2,3-triazol-4-yl)methyl)thiophene-2-sulfonamide]",49.9 ± 1.2,19.8 ± 0.6,15.3 ± 0.8,110 to 111,
